The values that follow come from patent publication US11408885B2, “Compositions and multiplex assays for characterizing active proteases and their inhibitors” (Massachusetts Institute of Technology, priority 2017, dated 2022).

Assay [1] deals with aggregate metalloprotease activity of conditioned medium. Put plainly: FRET substrate cleavage in conditioned media of cell cultures. It is filed as biochemical, human. How it is done:
Eight conditioned mediums were assayed, each tested in two complete biological replicates (n=2), from these cell cultures: four endometrial related cell populations including (1) primary endometrial stromal cells (pESC), (2) telomerase-immortalized human endometrial stromal cells (tHESC) (Krikun et al., Endocrinology, 145(5):2291-6 (2004)), (3) an adenocarcinoma endometrial epithelial cell line, Ishikawa, and (4) an epithelial line derived from an endometriosis lesion, 12z; three canonical cancer cell lines including (5) A549, (6) […], and (7) HT1080; as well as (8) human telomerase reverse transcriptase (hTERT) immortalized mesenchymal stem cell line (MSC).
Conditioned supernatant was prepared: collected at 12 h, spun down at 200 g for 5 min to remove debris, and immediately flash-frozen. For FRET-substrate assays involving this supernatant, final reactions were composed of a 2:1:1 mixture of […] substrate diluted from 5 mMDMSO stock into phosphate buffered saline, 4 nM active MMP7 diluted in ‘MMP buffer’, and thawed supernatant.
Validation of HxBP-Bt probe binding to the active sites of proteases in conditioned media was performed based on the FRET-based study as described in Example 1, without the addition of MMP capture beads. […]

In assay [2] the target is T1, MMP1 (Homo sapiens, UniProt P03956).
T1 sequence (P03956 100-469): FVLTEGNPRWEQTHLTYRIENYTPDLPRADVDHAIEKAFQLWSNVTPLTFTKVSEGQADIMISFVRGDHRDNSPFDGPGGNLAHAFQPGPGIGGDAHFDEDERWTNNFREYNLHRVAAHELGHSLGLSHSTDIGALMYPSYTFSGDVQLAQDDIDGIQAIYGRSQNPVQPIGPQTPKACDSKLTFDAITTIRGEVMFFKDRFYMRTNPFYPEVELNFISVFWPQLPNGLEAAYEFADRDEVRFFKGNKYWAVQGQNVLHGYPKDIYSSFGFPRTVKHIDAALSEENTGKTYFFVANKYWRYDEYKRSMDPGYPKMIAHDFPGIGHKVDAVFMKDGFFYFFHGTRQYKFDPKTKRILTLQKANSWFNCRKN
In words: FRET substrate cleavage by recombinant MMP, inhibition by activity-based probe. Type of assay: biochemical. Set-up: purchased Peprotech. The conditions noted are these: FRET substrate PEPDAB008 10 μM, read-out: IC50, inhibition of substrate cleavage of active MMP. The source says:
(§1) The binding of an activity-based probe, e.g., HxBP-Bt, to the active site of an MMP (as shown in FIG. 1A) would effectively reduce (or inhibit) the ability of such MMP to cleave its substrate. […] This correlation should also provide an IC50 value to measure the sensitivity/potency of the MAMBI system to bind, and thereby quantify, active MMPs. […] Fluorescence resonance energy transfer (FRET) technique is used to determine if a substrate is cleaved by pre-labeling two parts of a substrate molecule with a donor chromophore and an acceptor chromophore, respectively, and measuring the energy transfer efficiency from the donor to the acceptor chromophore to determine if two fluorophores are within a certain distance of each other, i.e. the substrate is intact and uncleaved. Here, HxBP-Bt bound MMP samples were mixed with chromophore-labeled substrate peptides in 384-well OptiPlates® at 37° C. using timelapse fluorimetry in the Spectromax® M3 and M2e fluorimeters (Molecular Devices). The fluorescence was monitored by plate reader. In general, readings measured fluorescence every 20 minutes for roughly five hours and the reported rate of increase in fluorescence was calculated from fitting a linear portion of this increase including at least 4 data points and subtracting the average increase in background, protease-free conditions. […] Reaction velocities were calculated from linear reaction periods from raw fluorescence value time courses. […] Relative rates of FRET substrate cleavage among samples with the addition of HxBP-Bt were quantified and compared with the rates without HxBP-Bt. Activities of recombinant MMPs 1, 7, 8, 12 and 13, in the presence or absence of HxBP-Bt probe, were characterized with […]008 (Dabcyl-[…]); MMPs 2 and 9 with […]011 (Dabcyl-[…]) and MMPs 3 and 10 with […]052 (Dabcyl-[…]). […] These IC50 values were used to estimate binding off-rates in the computational model. IC50 of the inhibitor was calculated by fitting the resulting dose-dependent data with the PRISM software (GraphPad, USA)

Assay [3] addresses MMP3 (Homo sapiens, UniProt P08254). The assay is described as above. It is filed as biochemical. Set-up: purchased Peprotech. The conditions noted are these: FRET substrate PEPDAB052 10 μM, read-out: IC50, inhibition of substrate cleavage of active MMP.
From the text: as §1

Assay [4] has as its target T2, MMP7 (Homo sapiens, UniProt P09237).
T2 sequence (P09237 95-267): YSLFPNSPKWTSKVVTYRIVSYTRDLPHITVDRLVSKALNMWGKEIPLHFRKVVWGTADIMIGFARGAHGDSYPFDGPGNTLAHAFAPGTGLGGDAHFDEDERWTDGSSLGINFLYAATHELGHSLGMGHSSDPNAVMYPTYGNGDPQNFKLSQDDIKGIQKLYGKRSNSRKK
Described as above. It is filed as biochemical. The arrangement: The recombinant catalytic domains of human MMPs 7 and 9 were purchased from Enzo Life Sciences, and of MMP 12 from Anaspec; purchased Enzo Life Sciences. The note with it: FRET substrate PEPDAB008 10 μM, read-out: IC50, inhibition of substrate cleavage of active MMP. From the text:
(§2) The binding of an activity-based probe, e.g., HxBP-Bt, to the active site of an MMP (as shown in FIG. 1A) would effectively reduce (or inhibit) the ability of such MMP to cleave its substrate. […] This correlation should also provide an IC50 value to measure the sensitivity/potency of the MAMBI system to bind, and thereby quantify, active MMPs. […] Fluorescence resonance energy transfer (FRET) technique is used to determine if a substrate is cleaved by pre-labeling two parts of a substrate molecule with a donor chromophore and an acceptor chromophore, respectively, and measuring the energy transfer efficiency from the donor to the acceptor chromophore to determine if two fluorophores are within a certain distance of each other, i.e. the substrate is intact and uncleaved. […] The fluorescence was monitored by plate reader. In general, readings measured fluorescence every 20 minutes for roughly five hours and the reported rate of increase in fluorescence was calculated from fitting a linear portion of this increase including at least 4 data points and subtracting the average increase in background, protease-free conditions. […] Reaction velocities were calculated from linear reaction periods from raw fluorescence value time courses. […] Relative rates of FRET substrate cleavage among samples with the addition of HxBP-Bt were quantified and compared with the rates without HxBP-Bt. […]

Assay [5] concerns the target MMP9 (Homo sapiens, UniProt P14780). The assay is described as above. It is filed as biochemical. Set-up: The recombinant catalytic domains of human MMPs 7 and 9 were purchased from Enzo Life Sciences, and of MMP 12 from Anaspec; purchased Enzo Life Sciences. The conditions noted are these: FRET substrate PEPDAB011 10 μM, read-out: IC50, inhibition of substrate cleavage of active MMP.
From the text: as §2

pIC50: −log10 of the molar value.

Sequence of MMP3 (P08254 100-477): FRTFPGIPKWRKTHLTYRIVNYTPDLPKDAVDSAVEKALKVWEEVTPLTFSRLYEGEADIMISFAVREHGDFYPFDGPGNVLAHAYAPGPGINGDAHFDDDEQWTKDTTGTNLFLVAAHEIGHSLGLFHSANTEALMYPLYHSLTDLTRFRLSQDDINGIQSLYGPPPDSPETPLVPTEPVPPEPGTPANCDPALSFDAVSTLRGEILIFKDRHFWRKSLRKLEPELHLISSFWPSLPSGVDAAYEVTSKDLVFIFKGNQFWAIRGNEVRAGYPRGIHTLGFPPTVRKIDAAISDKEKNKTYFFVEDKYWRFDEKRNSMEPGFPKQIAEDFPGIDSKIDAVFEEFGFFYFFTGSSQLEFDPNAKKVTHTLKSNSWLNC
Sequence of MMP9 (P14780 107-449 limits assumed): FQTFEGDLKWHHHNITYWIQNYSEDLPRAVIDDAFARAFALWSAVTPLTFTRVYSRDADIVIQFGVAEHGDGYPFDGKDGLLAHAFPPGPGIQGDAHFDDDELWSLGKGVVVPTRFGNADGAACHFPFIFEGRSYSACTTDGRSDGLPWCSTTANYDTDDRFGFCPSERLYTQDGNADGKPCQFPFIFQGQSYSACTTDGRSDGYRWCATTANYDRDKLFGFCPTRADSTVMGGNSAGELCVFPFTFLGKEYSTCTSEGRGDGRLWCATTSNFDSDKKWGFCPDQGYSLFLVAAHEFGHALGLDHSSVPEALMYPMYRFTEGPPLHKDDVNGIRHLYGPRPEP

For `CC(C)CC(C(=O)NC(Cc1ccc(C(=O)c2ccccc2)cc1)C(=O)NCCOCCOCCOCC(=O)NCC(C)(C)SSC(C)(C)CNC(=O)CCCCC1SCC2NC(=O)NC21)C(O)C(=O)NO` (stereo not drawn) [HxBP-Bt, biotin-tagged hydroxamate benzophenone (HxBP-Bt) probe], the “effect on substrate cleavage (bulk protease activity)” value is “greatly deceased the substrate cleavage ability” in assay [1] (eight conditioned media normalized to 1000 μg/mL, 500 nM HxBP-Bt) and “further decreased the protease activities” in assay [1] (eight conditioned media, 1500 nM HxBP-Bt, in some cases). In addition, the pIC50 in assay [2] is 8.68; in assay [3], 7.21; in assay [4], 8.04; in assay [5], 8.57.
